From patent US11806393B2, “Flavivirus peptide sequences, epitopes, and methods and uses thereof” (priority 2017, dated 2023)

Experiments:
Format in all cases: cell-based, mouse
[1] = tested on: CD8+ T cells; test: IFNγ ICS, DENV2 S221-infected Ifnar-/- HLA-B*0702 transgenic mice; conditions: HLA-B*0702 mice; for % IFNγ+ CD8+ T cells, S221: 7 days after DENV2 S221, ICS; for ZIKV/DENV cross-reactivity in DENV2-infected mice (IFNγ ELISPOT and IFNγ ICS): DENV2 S221, 7 days
Procedure: (§1) Two ZIKV strains, MR766 (Uganda, 1947) and FSS13025 (Cambodia, 2010), were obtained from the World Reference Center for Emerging Viruses and Arboviruses (WRCEVA). The mouse-adapted DENV2 strain S221 is a triple-plaque purified clone derived from DENV2 D2S1038. Both ZIKV and DENV2 were amplified in C6/36 mosquito cells, and viral titers were measured using baby hamster kidney (BHK)-21 cell-based focus forming assay (FFA). For epitope screening, 5-week old mice (female or male) were infected retro-orbitally (R.O.) with either 1×102 FFU of ZIKV FSS13025 or ZIKV MR766, or 2×10^4 FFU of DENV2 S221 in 200 μl 10% FBS/PBS. Seven days after infection, CD8^+ T cells were isolated from splenocytes and used for ELISPOT assay, while the splenocytes were directly used for ICS assay. Additionally, 5-week old mice were inoculated I.P. with 2×10^3 FFU of DENV2 S221 for 4 weeks.
(§2) Spleens were harvested from virus-infected, mock-immunized, or peptide-immunized mice. 1×10^6 splenocytes were plated in each well of 96-well U-bottom plates and stimulated with individual peptide (10 μg crude peptide or 1 μg pure peptide per well) for 6 hours. Five hours before the end of incubation, Brefeldin A (GolgiPlug; BD Biosciences) and PE-conjugated anti CD107a mAb (clone 1D4B, eBioscience) were added to the cells. Splenocytes stimulated with PMA-ionomycin were used as the positive control, while cells without any stimulation were the negative control. […] Samples were run using an LSR™ II (BD Biosciences) and analyzed using FLOWJO™ software X 10.0.7 (Tree Star, Ashland, Oreg.).
(§3) The following results are with respect to FIG. 14A and FIG. 14B, where Ifnar^−/− HLA-B*0702 transgenic mice were infected R.O. with 2×10^4 FFU of DENV2 strain S221 for 7 days. CD8^+ T cells isolated from splenocytes were stimulated with each of the 37 ZIKV epitopes identified via IFNγELISPOT to perform (FIG. 14A) IFNγELISPOT and (FIG. 14B) ICS assay. Data represent the average of two independent IFNγELISPOT experiments and two independent ICS experiments (n=7 mice) and are expressed as mean±SEM. Dotted line corresponds to the cutoff value. *, P<0.05.

[2] = tested on: CD3+CD8+ T cells; test: IFNγ ICS, ZIKV-infected Ifnar-/- HLA-B*0702 transgenic mice; conditions: for % IFNγ+ CD8+ T cells, MR766 / % IFNγ+ CD8+ T cells, FSS13025: HLA-B*0702 mice; for % IFNγ+ CD8+ T cells, MR766: 7 days after ZIKV MR766, ICS; for % IFNγ+ CD8+ T cells, FSS13025: 7 days after ZIKV FSS13025, ICS
Procedure: as §1, §2
Data represent the average of two independent experiments and are expressed as mean±SEM. *, P<0.05; **, P<0.01; Two-tailed Mann-Whitney test. P/I denotes PMA/ionomycin.

[3] = tested on: CD8+ T cells; test: IFNγ ELISPOT, ZIKV-infected Ifnar-/- HLA-B*0702 transgenic mice; conditions: HLA-B*0702 mice; for SFC/10^6 CD8+ T cells, FSS13025: 7 days after 1×10^2 FFU ZIKV FSS13025; for SFC/10^6 CD8+ T cells, MR766: 7 days after 1×10^2 FFU ZIKV MR766; for immunodominance in IFNγ ELISPOT: immunodominant: >500 SFCs/10^6 CD8+ T cells, shared by both ZIKV strains
Procedure: as §1
(§4) CD8^+ T cells were isolated from splenocytes using magnetic bead positive selection (Miltenyi Biotec, Germany) 7 days after virus infection. 2×10^5 CD8^+ T cells were stimulated with 1×10^5 LPS-blasts loaded with 10 μg of individual peptide in 96-well flat-bottom plates (IMMOBILON™-P; Millipore, Bedford, Mass.) that were coated with anti-IFNγ mAb (clone AN18; Mabtech, Stockholm, Sweden) in triplicate. Concanavalin A (ConA) was used as positive control. After 20 hours of incubation, biotinylated anti-mouse IFNγ mAb (R4-6A2; Mabtech), followed by ABC peroxidase (Vector Laboratories, Burlingame, Calif., USA) and then 3-amino-9-ethylcarbazole (Sigma-Aldrich, St. Louis, Mo., USA) were added into the wells. […] A peptide inducing a magnitude of >500 SFCs/10^6 CD8^+ T cells was considered as an immunodominant peptide.
Two independent experiments performed in triplicate were averaged and the error bars represent the SEM. The data are expressed as the mean number of spot forming cells (SFC) per 10^6 CD8^+ T cells. The criteria for positivity were net SFC per 10^6 cells of >20, and a stimulation index of >2.0 when compared with the negative control. Dotted lines represent the cutoff value. * Indicates a positive response. […] ConA denotes Concanavalin A.

[4] = tested on: CD44+CD62L- CD8+ T cells; test: ICS, peptide-immunized Ifnar-/- HLA-B*0702 mice challenged with ZIKV; conditions: day 3 after ZIKV challenge; for percentage of IFNγ-producing cells among antigen experienced (CD44+CD62L-) CD8+ T cells: mice immunized with the 3 ZIKV immunodominant epitopes
Text: Two HLA-B*0702-binding ZIKV-specific peptides (FSS-NS2A133-141(SEQ ID NO: 41) and FSS/MR766-NS2B68-75 (SEQ ID NO: 45)) and four ZIKV/DENV cross-reactive peptides (FSS/MR766-NS4B426-435 (SEQ ID NO: 60), FSS/MR766-NS2A75-84 (SEQ ID NO: 39), FSS/MR766-NS3206-215 (SEQ ID NO: 47), and FSS/MR766-NS3574-582 (SEQ ID NO: 52)) were chosen for synthesis. Five HLA-A*0101-binding peptides (FSS/MR-E159-167 (SEQ ID NO: 70), FSS/MR-E195-203 (SEQ ID NO: 71), FSS/MR-NS123-31 (SEQ ID NO: 74), FSS/MR-NS4B231-239 (SEQ ID NO: 77), and FSS/MR-NS5509-517 (SEQ ID NO: 79)) were chosen for synthesis. Mice (both female and male; 5-6 weeks of age) were immunized subcutaneously with a mixture of HCV helper peptide (100 μg/mouse) and 3 or 4 HLA-B*0702-binding peptides (50 μg/peptide/mouse) emulsified in Complete Freund's Adjuvant (CFA). Mock group mice received the same immunization strategy but without any ZIKV-specific or ZIKV/DENV cross-reactive peptide. On the 21st day, mice were boosted with the same peptide mixtures emulsified in Incomplete Freund's Adjuvant (IFA). […] Three days post ZIKV infection mice were sacrificed, and serum and spleen were harvested. The splenocytes were used for ICS assay. After cardiac perfusion with PBS, brain was harvested. The levels of infectious ZIKV in serum and brain were measured using FFA.
as §2
Peptide groups received corresponding peptide immunizations as described in Materials and Methods. […] CD3^+CD8^+CD44^+CD62L− T cells were gated and the percentages of IFNγ^+ and/or TNFα^+ cells in a representative mouse from mock (FIG. 12A) and peptide (FIG. 12B) groups were determined by ICS. The levels of infectious ZIKV in sera and brains were measured via FFA. Data were expressed as mean±SEM. *, P<0.05; **, P<0.01; ***, P<0.001. Two-tailed Mann-Whitney test.

[5] = tested on: CD8+ T cells; test: IFNγ ELISPOT, DENV2 S221-infected Ifnar-/- HLA-B*0702 transgenic mice; conditions: HLA-B*0702 mice, 7 days after 2×10^4 FFU DENV2 S221
Procedure: as §1, §4, §3

[6] = tested on: CD8+ T cells; test: ICS, DENV2-immune Ifnar-/- HLA-B*0702 mice challenged with ZIKV FSS13025; conditions: day 3 after ZIKV FSS13025 challenge
Procedure: as §1
Spleens were harvested from virus-infected, mock-immunized, or peptide-immunized mice. 1×10^6 splenocytes were plated in each well of 96-well U-bottom plates and stimulated with individual peptide (10 μg crude peptide or 1 μg pure peptide per well) for 6 hours. Five hours before the end of incubation, Brefeldin A (GolgiPlug; BD Biosciences) and PE-conjugated anti CD107a mAb (clone 1D4B, eBioscience) were added to the cells. Splenocytes stimulated with PMA-ionomycin were used as the positive control, while cells without any stimulation were the negative control. After incubation, cells were first stained with PERCPCY™ 5.5-conjugated anti-CD3 mAb (Clone 145-2C11, TONBO), PE-CY7™-conjugated anti-CD8 mAb (clone 53-67, BD Biosciences), EFLUOR™ 450-conjugated anti-CD44 mAb (clone IM7, eBioscience), and APC eFluor 780-conjugated anti-CD62L mAb (clone Mel-14, eBioscience). Cells were then fixed and permeabilized using CYTOFIX/CYTOPERM™ solution (BD Biosciences), followed by staining with FITC-conjugated anti-IFNγ mAb (clone XMG 1.2, TONBO) and APC-conjugated anti-TNFα mAb (clone MP6-XT22, eBioscience). Samples were run using an LSR™ II (BD Biosciences) and analyzed using FLOWJO™ software X 10.0.7 (Tree Star, Ashland, Oreg.).
The following results are with respect to FIG. 11 to FIG. 11E, where Ifnar^−/− HLA-B*0702 transgenic mice were inoculated I.P. with 2×10^3 FFU of DENV2 strain S221 for 4 weeks. Naive mice (n=5) and DENV2 strain S221-immune mice (n=5) were challenged R.O. with 1×10^4 FU of ZIKV FSS13025 for three days, and the percentages of peptide-specific IFNγ^+ and/or TNFα^+ CD8^+ T cells were detected by ICS (FIG. 11A and FIG. 11B). […] Data were expressed as mean±SEM. *, P<0.05; **, P<0.01; Two-tailed ann-Whitney test. Black “*” indicates ZIKV-specific response while bold “*” represents ZIKV/DENV cross-reactive response. All positive peptides were grouped according the ZIKV specificity of immune response (FIG. 11E). Numbers in parentheses indicate the number of positive peptides in this group.

## RPRVCTKEEF [FSS/MR-NS5140-149]
[1]
  % IFNγ+ CD8+ T cells, S221: 0.28%
[2]
  % IFNγ+ CD8+ T cells, MR766: (0.24%)
[3]
  SFC/10^6 CD8+ T cells, FSS13025: 162 SFC/10^6 CD8+ T cells
  SFC/10^6 CD8+ T cells, MR766: 311 SFC/10^6 CD8+ T cells

## VPRTDNITL [FSS-NS2A133-141]
[2]
  % IFNγ+ CD8+ T cells, FSS13025: (0.9%)
  % IFNγ+ CD8+ T cells, MR766: (1.07%)
[4]
  percentage of IFNγ-producing cells among antigen experienced (CD44+CD62L-) CD8+ T cells: 0.86%±0.71
[3]
  SFC/10^6 CD8+ T cells, FSS13025: 786 SFC/10^6 CD8+ T cells
  SFC/10^6 CD8+ T cells, MR766: 1182 SFC/10^6 CD8+ T cells
  immunodominance in IFNγ ELISPOT: immunodominant

## VVMILGGFSM [MR-NS2A31-40]
[2]
  % IFNγ+ CD8+ T cells, MR766: (0.37%)
[5]
  SFC/10^6 CD8+ T cells, S221: 51 SFC/10^6 CD8+ T cells
[6]
  percentage of epitope-specific IFNγ-producing CD8+ T cells: 0.42±0.12%
[3]
  SFC/10^6 CD8+ T cells, MR766: 106 SFC/10^6 CD8+ T cells

## RPGAFCIKVL [FSS/MR-NS4B426-435]
[1]
  % IFNγ+ CD8+ T cells, S221: (0.3%)
  ZIKV/DENV cross-reactivity in DENV2-infected mice (IFNγ ELISPOT and IFNγ ICS): positive in both IFNγ ELISPOT and IFNγICS assays
[2]
  % IFNγ+ CD8+ T cells, FSS13025: (2.28%)
  % IFNγ+ CD8+ T cells, MR766: (2.36%)
[2]; mice infected with either ZIKV FSS13025 or ZIKV MR766
  simultaneous IFNγ and TNFα secretion by peptide-stimulated CD8+ T cells: simultaneously secreted both IFNγ and TNFα
[5]
  SFC/10^6 CD8+ T cells, S221: 90 SFC/10^6 CD8+ T cells
[4]
  percentage of IFNγ-producing cells among antigen experienced (CD44+CD62L-) CD8+ T cells: 1.63±0.76%
[4]; mice immunized with the 4 ZIKV/DENV cross-reactive peptides
  percentage of epitope-specific cells among antigen experienced (CD44+CD62L-) CD8+ T cells: 1.52±0.42%
[3]
  SFC/10^6 CD8+ T cells, FSS13025: 1223 SFC/10^6 CD8+ T cells
  SFC/10^6 CD8+ T cells, MR766: 1362 SFC/10^6 CD8+ T cells
  immunodominance in IFNγ ELISPOT: most immunodominant epitope

## VPTGRTTVV (VPTGRTTW) [FSS/MR-NS5539-546]
[1]
  % IFNγ+ CD8+ T cells, S221: (0.18%)
  ZIKV/DENV cross-reactivity in DENV2-infected mice (IFNγ ELISPOT and IFNγ ICS): positive in both IFNγ ELISPOT and IFNγICS assays
[2]
  % IFNγ+ CD8+ T cells, MR766: (0.25%)
[5]
  SFC/10^6 CD8+ T cells, S221: 54 SFC/10^6 CD8+ T cells
[3]
  SFC/10^6 CD8+ T cells, MR766: 121 SFC/10^6 CD8+ T cells

## SPRLDVAL [FSS/MR-NS2B68-75]
[2]
  % IFNγ+ CD8+ T cells, FSS13025: (0.56%)
  % IFNγ+ CD8+ T cells, MR766: (0.77%)
[2]; ZIKV MR766-infected mice
  simultaneous IFNγ and TNFα production by peptide-stimulated CD8+ T cells: stimulated simultaneous production of IFNγ and TNFα
[4]
  percentage of IFNγ-producing cells among antigen experienced (CD44+CD62L-) CD8+ T cells: 0.61±0.47%
[3]
  SFC/10^6 CD8+ T cells, FSS13025: 963 SFC/10^6 CD8+ T cells
  SFC/10^6 CD8+ T cells, MR766: 993 SFC/10^6 CD8+ T cells
  immunodominance in IFNγ ELISPOT: immunodominant
